Results reported in patent publication US20100035866A1, “NOVEL SUBSTITUTED-1, 1-DIOXO-BENZO[1,2,4]THIADIAZIN-3ONES, PREPARATION METHOD THEREOF, AND PHARMACEUTICAL COMPOSITION CONTAINING THE SAME” (KOREA RESEARCH INSTITUTE OF CHEMICAL TECHNOLOGY, priority 2006, published 2010).

How the values were obtained:
hD4.2 receptor = target: T1, hD4.2 receptor (Homo sapiens, UniProt P21917, DEL265-296); experiment: Dopamine receptor family binding: D4 ([3H]YM-09151-2); details: [3H]YM-09151-2 0.06 nM; read-out: Binding affinity, IC50 (nM), D4
T1 construct: purchased BioSignal Packard Inc., Montreal, Canada
T1 sequence (P21917 with tags, fused parts or gaps DEL265-296): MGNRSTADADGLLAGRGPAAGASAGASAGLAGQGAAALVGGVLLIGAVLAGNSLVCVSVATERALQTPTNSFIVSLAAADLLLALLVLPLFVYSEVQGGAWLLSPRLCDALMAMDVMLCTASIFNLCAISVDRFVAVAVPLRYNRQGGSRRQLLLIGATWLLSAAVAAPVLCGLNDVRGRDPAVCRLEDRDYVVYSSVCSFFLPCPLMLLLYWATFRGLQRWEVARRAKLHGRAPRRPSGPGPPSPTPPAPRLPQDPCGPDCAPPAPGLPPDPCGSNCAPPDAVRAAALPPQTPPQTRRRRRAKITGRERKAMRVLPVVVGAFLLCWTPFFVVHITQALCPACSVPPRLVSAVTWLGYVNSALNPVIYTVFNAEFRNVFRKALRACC
Description: (§1) 2-2: Binding Assays of Dopamine Receptor Family
(§2) The radioligands used were [^3H]spiperone (for hD2L and hD3 receptors, 1 nM) and [^3H] YM-09151-2 (for hD4.2 receptor, 0.06 nM). Radioligand bindings were performed by the protocols provided by the supplier of receptor membranes (BioSignal Packard Inc., Montreal, Canada). Briefly, the buffer used in D2 or D3 receptor binding assay was 50 mM Tris-HCl (pH 7.4), 10 mM MgCl2, 1 mM EDTA, or 50 mM Tris-HCl (pH 7.4), 5 mM MgCl2 5 mM EDTA, 5 mM KCl, 1.5 mM CaCl2, 120 mM NaCl, respectively. In [^3H] YM-09151-2 receptor binding assays, the buffer containing 50 mM Tris-HCl (pH 7.4), 5 mM MgCl2, 5 mM EDTA, 5 mM KCl and 1.5 mM CaCl2 was used. […] Competition binding studies were carried out with 7-8 concentrations of the test compound run in duplicate tubes, and isotherms from three assays were calculated by computerized nonlinear regression analysis (GraphPad Prism Program, San Diego, […]) to yield median inhibitory concentration (IC50) values.

5-HT2c = target: T2, 5-HT2c (Homo sapiens, UniProt P28335); experiment: Radioligand binding, 5-HT receptor family: 5-HT2c ([3H]Mesulergine); details: CHO-K1 human recombinant receptor, [3H]Mesulergine 1 nM; read-out: Binding affinity, IC50 (nM), 5-HT2c
T2 construct: purchased Euroscreen/BioSignal Packard Inc
T2 sequence (P28335 33-458): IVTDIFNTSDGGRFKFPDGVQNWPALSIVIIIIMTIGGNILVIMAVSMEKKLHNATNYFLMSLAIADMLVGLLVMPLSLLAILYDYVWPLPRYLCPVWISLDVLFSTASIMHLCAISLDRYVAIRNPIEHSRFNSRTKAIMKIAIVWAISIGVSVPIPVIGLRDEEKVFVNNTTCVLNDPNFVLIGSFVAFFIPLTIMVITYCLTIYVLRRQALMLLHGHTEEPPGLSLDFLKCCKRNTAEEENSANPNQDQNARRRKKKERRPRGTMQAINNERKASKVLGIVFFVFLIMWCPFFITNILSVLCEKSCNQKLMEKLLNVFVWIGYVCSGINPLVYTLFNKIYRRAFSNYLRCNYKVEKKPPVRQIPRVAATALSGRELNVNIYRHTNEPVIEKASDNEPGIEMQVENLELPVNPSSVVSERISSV

hD3 receptor = target: T3, hD3 receptor (Homo sapiens, UniProt P35462); experiment: Dopamine receptor family binding: D3 ([3H]spiperone); details: [3H]spiperone 1 nM; read-out: Binding affinity, IC50 (nM), D3
T3 construct: purchased BioSignal Packard Inc., Montreal, Canada

5-HT2a = target: T4, 5-HT2a (Homo sapiens, UniProt P28223); experiment: Radioligand binding, 5-HT receptor family: 5-HT2a ([3H]Ketanserin); details: CHO-K1 human recombinant receptor, [3H]Ketanserin 1 nM; read-out: Binding affinity, IC50 (nM), 5-HT2a
T4 construct: purchased Euroscreen/BioSignal Packard Inc

hD2L receptor = target: T5, hD2L receptor (Homo sapiens, UniProt P14416); experiment: Dopamine receptor family binding: D2 ([3H]spiperone); details: [3H]spiperone 1 nM; read-out: Binding affinity, IC50 (nM), D2
T5 construct: purchased BioSignal Packard Inc., Montreal, Canada
Description: as §1, §2

5-HT1a = target: T6, 5-HT1a (Homo sapiens, UniProt P08908); experiment: Radioligand binding, 5-HT receptor family: 5-HT1a ([3H]8-OH-DPAT); details: CHO-K1 human recombinant receptor, [3H]8-OH-DPAT 0.5 nM; read-out: Binding affinity, IC50 (nM), 5-HT1a
T6 construct: purchased Euroscreen/BioSignal Packard Inc
T6 sequence (P08908 1-422): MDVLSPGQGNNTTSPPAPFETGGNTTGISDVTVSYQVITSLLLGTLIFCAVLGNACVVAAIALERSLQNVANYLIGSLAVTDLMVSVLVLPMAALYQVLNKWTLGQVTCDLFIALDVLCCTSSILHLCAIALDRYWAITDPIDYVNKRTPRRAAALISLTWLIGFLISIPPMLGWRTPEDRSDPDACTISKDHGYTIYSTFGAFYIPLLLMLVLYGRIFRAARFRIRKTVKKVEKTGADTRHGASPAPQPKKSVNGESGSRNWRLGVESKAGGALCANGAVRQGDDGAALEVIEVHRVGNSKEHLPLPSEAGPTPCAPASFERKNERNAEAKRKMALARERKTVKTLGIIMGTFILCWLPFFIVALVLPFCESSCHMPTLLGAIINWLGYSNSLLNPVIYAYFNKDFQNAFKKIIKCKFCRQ

5-HT7 = target: T7, 5-HT7 (Homo sapiens, UniProt P34969); experiment: Radioligand binding, 5-HT receptor family: 5-HT7 ([3H]LSD); details: CHO-K1 human recombinant receptor, [3H]LSD 3 nM; read-out: Binding affinity, IC50 (nM), 5-HT7
T7 construct: purchased Euroscreen/BioSignal Packard Inc
Description: Radioligand bindings were performed according to the test method provided by the supplier of receptor membrane (Euroscreen/BioSignal Packard Inc.). The detailed assay conditions and the results were shown in the following Table 3 and Table 4, respectively.

[1] = target: Human serotonin 5-HT6 receptor (Homo sapiens, UniProt P50406); experiment: [3H]LSD binding assay on cloned 5-HT6 receptor; details: IC50 (nM)
[2] = Binding affinity, 5-HT6, Table 4
[3] = binding affinity to the 5-HT6 receptor, Table 2, 1.87 nM [3H]LSD, cloned human receptor membranes from Sf21 cells, 37° C. 60 min

T7 sequence (P34969 whole entry): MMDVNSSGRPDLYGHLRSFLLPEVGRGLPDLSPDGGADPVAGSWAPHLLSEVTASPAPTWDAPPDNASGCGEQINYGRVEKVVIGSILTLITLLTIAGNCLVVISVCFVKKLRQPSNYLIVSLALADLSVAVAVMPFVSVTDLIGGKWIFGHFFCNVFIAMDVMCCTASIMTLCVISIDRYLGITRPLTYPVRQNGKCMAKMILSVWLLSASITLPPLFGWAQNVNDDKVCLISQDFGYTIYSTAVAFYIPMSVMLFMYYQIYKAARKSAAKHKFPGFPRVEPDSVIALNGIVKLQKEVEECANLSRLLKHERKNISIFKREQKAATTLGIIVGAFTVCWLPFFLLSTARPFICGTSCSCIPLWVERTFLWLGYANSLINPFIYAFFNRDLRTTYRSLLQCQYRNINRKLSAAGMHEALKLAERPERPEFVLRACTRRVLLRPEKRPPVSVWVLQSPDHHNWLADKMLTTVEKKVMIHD
T3 sequence (P35462 whole entry): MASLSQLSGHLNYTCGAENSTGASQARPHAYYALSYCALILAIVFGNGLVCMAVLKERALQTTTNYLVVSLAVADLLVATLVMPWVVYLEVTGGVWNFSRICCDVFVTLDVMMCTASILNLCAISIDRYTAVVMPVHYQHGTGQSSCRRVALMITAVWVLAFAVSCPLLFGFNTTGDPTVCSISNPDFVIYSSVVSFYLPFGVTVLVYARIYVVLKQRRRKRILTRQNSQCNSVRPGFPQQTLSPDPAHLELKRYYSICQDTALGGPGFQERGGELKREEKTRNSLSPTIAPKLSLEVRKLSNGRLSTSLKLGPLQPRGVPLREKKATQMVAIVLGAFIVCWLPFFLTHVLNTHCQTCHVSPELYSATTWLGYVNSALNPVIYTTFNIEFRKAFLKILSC
T4 sequence (P28223 whole entry): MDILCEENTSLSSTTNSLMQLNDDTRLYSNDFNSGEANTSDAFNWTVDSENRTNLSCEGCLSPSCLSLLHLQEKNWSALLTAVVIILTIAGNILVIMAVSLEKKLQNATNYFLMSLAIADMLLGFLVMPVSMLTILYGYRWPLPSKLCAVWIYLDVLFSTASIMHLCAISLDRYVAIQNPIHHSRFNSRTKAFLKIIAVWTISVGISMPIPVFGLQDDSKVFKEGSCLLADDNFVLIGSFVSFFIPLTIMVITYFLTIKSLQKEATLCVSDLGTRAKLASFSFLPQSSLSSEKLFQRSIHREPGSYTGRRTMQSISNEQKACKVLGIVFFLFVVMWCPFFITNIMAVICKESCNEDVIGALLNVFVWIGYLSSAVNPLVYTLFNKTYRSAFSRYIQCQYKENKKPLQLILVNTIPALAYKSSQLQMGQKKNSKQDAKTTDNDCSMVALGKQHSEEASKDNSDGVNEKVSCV
Sequence of Human serotonin 5-HT6 receptor (P50406 whole entry): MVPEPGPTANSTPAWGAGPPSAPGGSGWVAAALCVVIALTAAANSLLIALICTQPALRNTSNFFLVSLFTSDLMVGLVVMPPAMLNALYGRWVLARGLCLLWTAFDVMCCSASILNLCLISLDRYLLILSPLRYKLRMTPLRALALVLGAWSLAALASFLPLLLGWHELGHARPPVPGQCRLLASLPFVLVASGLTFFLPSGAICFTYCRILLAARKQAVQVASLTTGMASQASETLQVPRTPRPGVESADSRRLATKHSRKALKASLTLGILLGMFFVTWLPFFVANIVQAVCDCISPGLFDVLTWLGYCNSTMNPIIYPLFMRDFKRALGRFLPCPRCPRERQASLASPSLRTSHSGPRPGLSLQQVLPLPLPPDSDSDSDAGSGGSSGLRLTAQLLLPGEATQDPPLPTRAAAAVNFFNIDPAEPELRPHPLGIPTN
T5 sequence (P14416 whole entry): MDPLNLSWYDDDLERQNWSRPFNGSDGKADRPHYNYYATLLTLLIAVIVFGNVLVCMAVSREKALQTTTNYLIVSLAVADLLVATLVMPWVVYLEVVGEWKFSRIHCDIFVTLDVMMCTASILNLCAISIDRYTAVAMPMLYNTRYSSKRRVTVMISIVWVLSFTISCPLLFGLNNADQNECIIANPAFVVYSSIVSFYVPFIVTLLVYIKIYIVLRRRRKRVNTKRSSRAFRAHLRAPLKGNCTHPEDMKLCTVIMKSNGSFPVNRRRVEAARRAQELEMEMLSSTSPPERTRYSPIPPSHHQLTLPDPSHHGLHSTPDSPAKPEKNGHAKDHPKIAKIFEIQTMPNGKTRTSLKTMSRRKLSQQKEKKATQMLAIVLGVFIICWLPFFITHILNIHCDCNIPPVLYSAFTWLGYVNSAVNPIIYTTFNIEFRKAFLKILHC

Row | Structure (SMILES) | melting point [°C] | IC50 (hD4.2 receptor) [nM] | IC50 (5-HT2c) [nM] | IC50 (hD3 receptor) [nM] | IC50 (5-HT2a) [nM] | IC50 (hD2L receptor) [nM] | IC50 (5-HT1a) [nM] | IC50 (5-HT7) [nM] | IC50 [1, 2] [nM] | IC50 [1, 3] [nM]
1 | CN1CCN(c2cc(Cl)cc3c2S(=O)(=O)N(Cc2ccc(Cl)cc2)C(=O)N3Cc2ccccc2)CC1 [Example 7, 4-Benzyl-6-chloro-2-(4-chloro-benzyl)-8-(4-methyl-piperazin-1-yl)-1,1-dioxo-1,4-dihydro-2H-1λ^6-benzo[1,2,4]thiadiazin-3-one] | 99 to 100 | > 10000 | 1540 | 555 | 488 | > 10000 | 3910 | > 10000 | 2.3 | 2.3
2 | CN1CCN(c2cc(Cl)cc3c2S(=O)(=O)N(Cc2ccccc2F)C(=O)N3Cc2ccccc2)CC1 [Example 2, 4-Benzyl-6-chloro-2-(2-fluoro-benzyl)-8-(4-methyl-piperazin-1-yl)-1,1-dioxo-1,4-dihydro-2H-1λ^6-benzo[1,2,4]thiadiazin-3-one] | 118 to 120 | > 10000 | 578 | 390 | 335 | > 10000 | 2300 | > 10000 | 1.9 | 1.9
3 | CCN1C(=O)N(Cc2ccccc2)c2cc(Cl)cc(N3CCN(C)CC3)c2S1(=O)=O [Example 33, 4-Benzyl-6-chloro-2-ethyl-8-(4-methyl-piperazin-1-yl)-1,1-dioxo-1,4-dihydro-2H-1λ^6-benzo[1,2,4]thiadiazin-3-one] | 167 to 169 | > 10000 | 1240 | 3170 | 119 | > 10000 | 2620 | > 10000 | 0.3 | 0.3
4 | CCCN1C(=O)N(Cc2ccccc2)c2cc(Cl)cc(N3CCN(C)CC3)c2S1(=O)=O [Example 34, 4-Benzyl-6-chloro-8-(4-methyl-piperazin-1-yl)-2-propyl-1,1-dioxo-1,4-dihydro-2H-1λ^6-benzo[1,2,4]thiadiazin-3-one] | 91 to 93 | > 10000 | 203 | 1860 | 436 | > 10000 | 2390 | > 10000 | 0.4 | 0.4
5 | CN1CCN(c2cc(Cl)cc3c2S(=O)(=O)N(Cc2ccccc2Cl)C(=O)N3Cc2ccccc2)CC1 [Example 5, 4-Benzyl-6-chloro-2-(2-chloro-benzyl)-8-(4-methyl-piperazin-1-yl)-1,1-dioxo-1,4-dihydro-2H-1λ^6-benzo[1,2,4]thiadiazin-3-one] | 132 to 133 | > 10000 | 240 | 93 | 396 | 5090 | 3010 | > 10000 | 1.3 | 1.3
6 | COc1ccccc1N1C(=O)N(Cc2ccccc2)c2cc(Cl)cc(N3CCN(C)CC3)c2S1(=O)=O [Example 28, 4-Benzyl-6-chloro-2-(2-methoxy-phenyl)-8-(4-methyl-piperazin-1-yl)-1,1-dioxo-1,4-dihydro-2H-1λ^6-benzo[1,2,4]thiadiazin-3-one] | 119 to 120 | – | – | – | – | – | – | – | – | 7.1
7 | CN1CCN(c2cc(Cl)cc3c2S(=O)(=O)N(Cc2ccc([N+](=O)[O-])cc2)C(=O)N3Cc2ccccc2)CC1 [Example 22, 4-Benzyl-6-chloro-8-(4-methyl-piperazin-1-yl)-2-(4-nitro-benzyl)-1,1-dioxo-1,4-dihydro-2H-1λ^6-benzo[1,2,4]thiadiazin-3-one] | 163 to 164 | – | – | – | – | – | – | – | – | 8.1
8 | CN1CCN(c2cc(Cl)cc3c2S(=O)(=O)N(Cc2cccc(Br)c2)C(=O)N3Cc2ccccc2)CC1 [Example 9, 4-Benzyl-2-(3-bromo-benzyl)-6-chloro-8-(4-methyl-piperazin-1-yl)-1,1-dioxo-1,4-dihydro-2H-1λ^6-benzo[1,2,4]thiadiazin-3-one] | 96 to 98 | – | – | – | – | – | – | – | – | 2.2
9 | O=C1N(Cc2ccccc2)c2cc(Cl)cc(N3CCN(c4ccccn4)CC3)c2S(=O)(=O)N1Cc1ccccc1Cl [Example 70, 4-Benzyl-6-chloro-2-(2-chloro-benzyl)-1,1-dioxo-8-(4-pyridin-2-yl-piperazin-1-yl)-1,4-dihydro-2H-1λ^6-benzo[1,2,4]thiadiazin-3-one] | 159 to 161 | – | – | – | – | – | – | – | – | > 1000
10 | CN1CCN(c2cc(Cl)cc3c2S(=O)(=O)N(Cc2ccc(C#N)cc2)C(=O)N3Cc2ccccc2)CC1 [Example 24, 4-[4-Benzyl-6-chloro-8-(4-methyl-piperazin-1-yl)-1,1,3-trioxo-3,4-dihydro-2H-1λ^6-benzo[1,2,4]thiadiazin-2-ylmethyl]-benzonitrile] | 134 to 135 | – | – | – | – | – | – | – | – | 6.4
